From patent publication US10434085B2, “Non-aromatic difluoro analogues of resorcylic acid lactones” (The University of North Carolina at Greensboro, priority 2015, dated 2019)

Tested on: not given
Experiment: not given
Details: cited from earlier work

Which stability in plasma does the source give for COc1cc(O)c2c(c1)/C=C/C[C@H](O)[C@H](O)C(=O)/C=C\C[C@H](C)OC2=O [(5Z)-7-oxozeaenol] here?
The stability in plasma was “instability in plasma”.

Target: TaK1-TaB1 (TAK-1 enzyme) (Homo sapiens (Human), UniProt O43318)
Sequence (O43318 other isoform, or with tags, fused parts or gaps): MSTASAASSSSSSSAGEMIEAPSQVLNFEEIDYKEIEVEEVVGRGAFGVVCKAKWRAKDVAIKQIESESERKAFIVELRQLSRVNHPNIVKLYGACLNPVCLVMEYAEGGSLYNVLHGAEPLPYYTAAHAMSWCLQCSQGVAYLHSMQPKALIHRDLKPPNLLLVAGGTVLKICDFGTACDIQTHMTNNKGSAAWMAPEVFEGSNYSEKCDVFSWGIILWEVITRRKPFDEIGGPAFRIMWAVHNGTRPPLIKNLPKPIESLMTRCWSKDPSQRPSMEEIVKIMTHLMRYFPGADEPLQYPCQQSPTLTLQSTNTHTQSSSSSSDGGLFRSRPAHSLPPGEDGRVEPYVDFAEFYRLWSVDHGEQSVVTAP
Experiment: TaK1-TaB1 inhibitor assay (IC50 of RAL analogues against TAK-1 enzyme)
Type: biochemical
Details: Table 1, TAK-1 enzyme
Source text: IV. TaK1-TaB1 (Transforming Growth Factor-β Activated Linase-1/TAK-1 Binding Protein 1) Inhibitor Assays

Which IC50 does the source give for C/C=C\C=C/C(=O)[C@@H](O)[C@@H](O)C/C=C/c1cc(OC)cc(OC)c1C(=O)OC [Compound 4, Methyl 2-((1E,4S,5S,7Z,9Z)-4,5-dihydroxy-6-oxoundeca-1,7,9-trien-1-yl)-4,6-dimethoxybenzoate] here?
The IC50 was > 30 µM.

With COc1cc2c(c(O)c1Br)C(=O)O[C@@H](C)C/C=C\C(=O)[C@@H](O)[C@@H](O)C/C=C/2 [Compound 6, (3S,5Z,8S,9S,11E)-15-Bromo-8,9,16-trihydroxy-14-methoxy-3-methyl-3,4,9,10-tetrahydro-1H-benzo[c][1]oxacyclotetradecine-1,7(8H)-dione] as the compound, how does the IC50 read?
Its IC50 is 2.6 µM.

With COc1cc(O)c2c(c1Br)/C=C/C[C@H](O)[C@H](O)C(=O)/C=C\C[C@H](C)OC2=O [Compound 7, (3S,5Z,8S,9S,11E)-13-Bromo-8,9,16-trihydroxy-14-methoxy-3-methyl-3,4,9,10-tetrahydro-1H-benzo[c][1]oxacyclotetradecine-1,7(8H)-dione] as the compound, how does the IC50 read?
The IC50 was 0.36 µM.

Which IC50 does the source give for COc1cc(O)c2c(c1)/C=C/C[C@@H]1OC(CC(=O)[C@H]1O)C[C@H](C)OC2=O [Compound 9, (1^2S,1^3S,8S,E)-1^3,5^3-Dihydroxy-5^5-methoxy-8-methyl-1^3,1^4,1^5,1^6-tetrahydro-1^2H-7-oxa-1(2,6)-pyrana-5(1,2) benzenacyclononaphan-3-ene-1^4,6-dione] here?
Its IC50 is > 30 µM.

For COc1cc(O)c2c(c1)/C=C/C[C@H](O)[C@H](O)C(=O)CCC[C@H](C)OC2=O [LL-Z164-1, reference compound], which IC50 is on record?
Its IC50 is 2.6 µM.

With COc1cc(O)c2c(c1)[C@H]1O[C@@H]1C[C@H](O)[C@H](O)C(=O)CCC[C@H](C)OC2=O [dihydrohypothemycin, reference compound] as the compound, how does the IC50 read?
The IC50 was > 30 µM.

Which IC50 does the source give for COc1cc(O)c2c(c1)/C=C/C[C@H](O)[C@H](O)[C@@H](O)/C=C/C[C@H](C)OC2=O [zeaenol, reference compound] here?
The IC50 was 10 µM.

Same assay, conditions: among synthesized analogues

Which “activity in TAK-1 assay” value does the source give for COC1=CC(=O)C2=C(/C=C/C[C@H](O)[C@H](O)C(=O)/C=C\C[C@H](C)OC2=O)C1(F)F [Compound 5, (3S,5Z,8S,9S,11E)-13,13-Difluoro-8,9-dihydroxy-14-methoxy-3-methyl-3,4,9,10-tetrahydro-1H benzo[c][1]oxacyclotetradecine-1,7,16(8H,13H)-trione] here?
Its value is “relatively active”.

Same assay, conditions: restated in Table 2 beside docking scores

Which IC50 does the source give for C/C=C\C=C/C(=O)[C@@H](O)[C@@H](O)C/C=C/c1cc(OC)cc(OC)c1C(=O)OC [Compound 4, Methyl 2-((1E,4S,5S,7Z,9Z)-4,5-dihydroxy-6-oxoundeca-1,7,9-trien-1-yl)-4,6-dimethoxybenzoate] here?
The IC50 was > 30 µM.

With COc1c(Br)c(O)c2c(c1Br)/C=C/C[C@H](O)[C@H](O)C(=O)/C=C\C[C@H](C)OC2=O [Compound 8, (3S,5Z,8S,9S,11E)-13,15-Dibromo-8,9,16-trihydroxy-14methoxy-3-methyl-3,4,9,10-tetrahydro-1H-benzo[c][1]oxacyclotetradecine-1,7(8H)-dione] as the compound, how does the IC50 read?
Its IC50 is 8.9 µM.

For COc1cc(O)c2c(c1)/C=C/C[C@@H]1OC(C)(C)O[C@@H]1C(=O)/C=C\C[C@H](C)OC2=O [Compound 10, (3aS,5Z,8S,15E,17aS)-11-Hydroxy-13-methoxy-2,2,8-trimethyl-7,8,17,17a-tetrahydro-4H-benzo[c][1,3]dioxolo[4,5-h][1]oxacyclotetradecine-4,10(3aH)-dione], which IC50 is on record?
Its IC50 is 0.38 µM.

Which IC50 does the source give for COc1cc(O)cc2c1C(=O)O[C@@H](C)CCCCC/C=C/C(=O)C2 [Greensporone C, reference compound] here?
Its IC50 is > 30 µM.
